Source: patent publication US11292801B2, “Calpain modulators and therapeutic uses thereof” (Blade Therapeutics, Inc., priority 2016, dated 2022)

How the values were obtained:
[1] = from C=CCCCCCc1ccccc1C(=O)N[C@@H](CC=C)C(=O)N(C)OC; rcm bond; Grubbs 2nd generation catalyst; DCM; 6.37 mM; 48.0 °C; 16.0 h
[2] = molecular target: T1, Human Calpain 1/NS1 (Homo sapiens, UniProt P07384); test: Biochemical inhibition of calpain 1, continuous fluorescence (FRET substrate) assay; conditions: mean, read-out: Human Calpain 1/NS1 IC50 (nM)_MEAN
T1 sequence (P07384 1-714): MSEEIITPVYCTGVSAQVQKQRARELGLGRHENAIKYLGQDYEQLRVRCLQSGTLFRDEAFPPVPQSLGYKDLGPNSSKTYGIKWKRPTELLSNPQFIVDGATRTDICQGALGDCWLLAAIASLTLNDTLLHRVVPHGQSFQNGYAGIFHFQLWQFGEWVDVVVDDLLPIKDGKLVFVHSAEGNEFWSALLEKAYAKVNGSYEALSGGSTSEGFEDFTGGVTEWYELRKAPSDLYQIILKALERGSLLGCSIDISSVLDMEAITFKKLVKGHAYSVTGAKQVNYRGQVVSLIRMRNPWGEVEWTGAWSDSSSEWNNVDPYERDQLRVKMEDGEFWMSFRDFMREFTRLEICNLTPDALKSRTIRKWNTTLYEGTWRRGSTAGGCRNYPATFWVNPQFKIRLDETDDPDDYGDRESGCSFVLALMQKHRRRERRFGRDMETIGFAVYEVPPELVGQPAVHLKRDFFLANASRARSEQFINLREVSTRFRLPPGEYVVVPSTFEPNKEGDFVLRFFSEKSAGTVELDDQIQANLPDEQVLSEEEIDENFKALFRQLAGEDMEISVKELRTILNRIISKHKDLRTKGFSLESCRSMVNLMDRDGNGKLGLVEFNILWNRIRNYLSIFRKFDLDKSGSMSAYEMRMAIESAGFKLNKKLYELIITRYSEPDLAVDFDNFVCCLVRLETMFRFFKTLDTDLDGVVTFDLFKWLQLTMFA
T1 sequence (P04632 1-268 partner): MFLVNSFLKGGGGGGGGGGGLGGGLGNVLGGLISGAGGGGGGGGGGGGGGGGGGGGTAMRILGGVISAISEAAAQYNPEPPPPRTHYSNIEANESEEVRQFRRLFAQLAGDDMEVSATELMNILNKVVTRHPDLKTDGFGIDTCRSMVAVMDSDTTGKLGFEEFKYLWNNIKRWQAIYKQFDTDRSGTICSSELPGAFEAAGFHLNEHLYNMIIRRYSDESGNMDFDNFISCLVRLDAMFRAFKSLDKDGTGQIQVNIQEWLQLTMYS
Summary of the method: (§1)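 Continuous FRET assay with 5-FAM/QXL520 peptide substrate in 50 mM Tris pH ~7.5, 100 mM NaCl, 1 mM DTT. Enzyme preincubated with inhibitor at 25C; reaction started with substrate plus CaCl2, read at 490/520 nm for 10 min. Rates from slopes over 1-5 min, IC50 from 4-parameter logistic fit.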

[3] = molecular target: T2, Human Calpain 9/NS1 (Homo sapiens, UniProt O14815); test: Biochemical inhibition of calpain 9, continuous fluorescence (FRET substrate) assay; conditions: mean, read-out: Human Calpain 9/NS1 IC50 (nM)_MEAN
T2 sequence (O14815 1-690): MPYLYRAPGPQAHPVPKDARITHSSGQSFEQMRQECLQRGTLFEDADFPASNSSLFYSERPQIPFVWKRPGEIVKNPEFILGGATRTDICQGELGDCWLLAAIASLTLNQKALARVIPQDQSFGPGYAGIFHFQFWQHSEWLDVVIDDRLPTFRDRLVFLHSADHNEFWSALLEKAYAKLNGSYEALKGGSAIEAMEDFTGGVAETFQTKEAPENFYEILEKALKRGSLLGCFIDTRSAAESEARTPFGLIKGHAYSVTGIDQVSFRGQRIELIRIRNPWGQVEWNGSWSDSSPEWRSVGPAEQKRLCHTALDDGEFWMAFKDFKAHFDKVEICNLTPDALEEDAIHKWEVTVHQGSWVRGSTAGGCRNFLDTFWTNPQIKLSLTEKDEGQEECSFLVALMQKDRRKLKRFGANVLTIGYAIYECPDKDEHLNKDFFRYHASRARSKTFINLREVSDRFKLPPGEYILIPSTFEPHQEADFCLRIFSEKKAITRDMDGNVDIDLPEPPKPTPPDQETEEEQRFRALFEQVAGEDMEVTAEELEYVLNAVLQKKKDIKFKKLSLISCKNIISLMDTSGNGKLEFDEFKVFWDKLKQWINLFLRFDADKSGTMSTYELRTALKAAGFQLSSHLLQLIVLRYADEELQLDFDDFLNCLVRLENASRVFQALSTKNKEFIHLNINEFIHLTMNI
T2 sequence (P04632 1-268 partner): T1 sequence (P04632 1-268 partner)
Summary of the method: as §1

[4] = molecular target: T3, Human Calpain 2/NS1 (Homo sapiens, UniProt P17655); test: Biochemical inhibition of calpain 2, continuous fluorescence (FRET substrate) assay; conditions: mean, read-out: Human Calpain 2/NS1 IC50 (nM)_MEAN
T3 sequence (P17655 1-700): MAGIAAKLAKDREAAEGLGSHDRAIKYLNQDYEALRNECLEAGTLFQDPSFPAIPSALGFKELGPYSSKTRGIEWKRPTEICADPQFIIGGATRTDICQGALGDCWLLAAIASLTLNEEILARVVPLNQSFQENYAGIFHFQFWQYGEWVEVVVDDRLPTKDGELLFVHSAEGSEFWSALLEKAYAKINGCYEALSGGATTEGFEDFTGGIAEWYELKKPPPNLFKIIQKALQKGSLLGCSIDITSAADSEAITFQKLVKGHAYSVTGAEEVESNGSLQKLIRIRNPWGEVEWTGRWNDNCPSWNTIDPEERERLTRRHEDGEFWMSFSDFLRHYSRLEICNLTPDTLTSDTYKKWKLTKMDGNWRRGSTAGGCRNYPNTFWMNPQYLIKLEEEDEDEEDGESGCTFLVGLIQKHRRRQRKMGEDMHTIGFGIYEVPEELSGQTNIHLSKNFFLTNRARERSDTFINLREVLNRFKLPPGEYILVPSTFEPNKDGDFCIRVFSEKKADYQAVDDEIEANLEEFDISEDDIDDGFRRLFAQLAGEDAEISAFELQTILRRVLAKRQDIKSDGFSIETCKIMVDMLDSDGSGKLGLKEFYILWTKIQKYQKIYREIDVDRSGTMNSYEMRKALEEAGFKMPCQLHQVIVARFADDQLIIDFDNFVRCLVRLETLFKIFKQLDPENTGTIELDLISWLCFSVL
T3 sequence (P04632 1-268 partner): T1 sequence (P04632 1-268 partner)
Summary of the method: as §1

CON(C)C(=O)[C@@H]1CC=CCCCCCc2ccccc2C(=O)N1
ring closure, yield of all isomers [1]: 49.4%

O=C[C@@H]1CCCCCCOc2ccnc(c2)-c2ccccc2C(=O)N1 [Compound 131, (S)-3-oxo-12-oxa-4-aza-1(2,4)-pyridina-2(1,2)-benzenacyclododecaphane-5-carbaldehyde]
IC50 [2]: < 3000 nM
IC50 [3]: < 3000 nM
IC50 [4]: < 3000 nM

NC(=O)C(=O)[C@@H]1CCCCCCOc2ccnc(c2)-c2ccccc2C(=O)N1 [Compound 132, (S)-2-oxo-2-(3-oxo-12-oxa-4-aza-1(2,4)-pyridina-2(1,2)-benzenacyclododecaphane-5-yl)acetamide]
IC50 [2]: < 3000 nM
IC50 [3]: < 3000 nM
IC50 [4]: < 3000 nM

O=C[C@@H]1CCCCCCOc2ccnc(n2)-c2ccccc2C(=O)N1 [Compound 133, (S)-3-oxo-12-oxa-4-aza-1(2,4)-pyrimidina-2(1,2)-benzenacyclododecaphane-5-carbaldehyde]
IC50 [2]: < 3000 nM
IC50 [3]: < 3000 nM
IC50 [4]: < 3000 nM

NC(=O)C(=O)[C@@H]1CCCCCCOc2ccnc(n2)-c2ccccc2C(=O)N1 [Compound 134, (S)-2-oxo-2-(3-oxo-12-oxa-4-aza-1(2,4)-pyrimidina-2(1,2)-benzenacyclododecaphane-5-yl)acetamide]
IC50 [2]: < 3000 nM
IC50 [3]: < 3000 nM
IC50 [4]: < 3000 nM

CON(C)C(=O)[C@@H]1C/C=C/CCOc2ccnc(n2)-c2ccccc2C(=O)N1 [Compound 135, (S,E)-N-methoxy-N-methyl-3-oxo-11-oxa-4-aza-1(2,4)-pyrimidina-2(1,2)-benzenacycloundecaphan-7-ene-5-carboxamide]
IC50 [2]: > 10000 nM
IC50 [3]: > 10000 nM
IC50 [4]: > 10000 nM

CON(C)C(=O)[C@@H]1C/C=C\CCOc2ccnc(n2)-c2ccccc2C(=O)N1 [Compound 136, (S,Z)—N-methoxy-N-methyl-3-oxo-11-oxa-4-aza-1(2,4)-pyrimidina-2(1,2)-benzenacycloundecaphan-7-ene-5-carboxamide]
IC50 [2]: > 10000 nM
IC50 [3]: > 10000 nM
IC50 [4]: > 10000 nM

NC(=O)C(=O)[C@@H]1C/C=C/CCOc2ccnc(n2)-c2ccccc2C(=O)N1 [Compound 137, (S,E)-2-oxo-2-(3-oxo-11-oxa-4-aza-1(2,4)-pyrimidina-2(1,2)-benzenacycloundecaphan-7-en-5-yl)acetamide]
IC50 [2]: < 3000 nM
IC50 [3]: < 3000 nM
IC50 [4]: < 3000 nM

NC(=O)C(=O)[C@@H]1C/C=C\CCOc2ccnc(n2)-c2ccccc2C(=O)N1 [Compound 138, (S,Z)-2-oxo-2-(3-oxo-11-oxa-4-aza-1(2,4)-pyrimidina-2(1,2)-benzenacycloundecaphan-7-en-5-yl)acetamide]
IC50 [2]: < 3000 nM
IC50 [3]: < 3000 nM
IC50 [4]: < 3000 nM

O=C[C@@H]1CCCCCOc2ccnc(n2)-c2ccccc2C(=O)N1 [Compound 139, (S)-3-oxo-11-oxa-4-aza-1(2,4)-pyrimidina-2(1,2)-benzena-cycloundecaphane-5-carbaldehyde]
IC50 [2]: < 3000 nM
IC50 [3]: < 3000 nM
IC50 [4]: < 3000 nM

NC(=O)C(=O)[C@@H]1CCCCCOc2cccc(c2)-c2n[nH]cc2C(=O)N1 [Compound 140, (S)-2-oxo-2-(11-oxo-1H-3-oxa-10-aza-1(3,4)-pyrazola-2(1,3)-benzena-cycloundecaphane-9-yl)acetamide]
IC50 [2]: < 3000 nM
IC50 [3]: < 3000 nM
IC50 [4]: < 3000 nM

Cc1cc2n(n1)-c1cccc(c1)OCCCCC[C@@H](C(=O)C(N)=O)NC2=O [Compound 141, (S)-2-oxo-2-(11-oxo-1^1H-3-oxa-10-aza-1(3,4)-pyrazola-2(1,3)-benzena-cycloundecaphane-9-yl)acetamide]
IC50 [2]: < 3000 nM
IC50 [3]: < 3000 nM
IC50 [4]: < 3000 nM

Cn1cc2c(n1)-c1cccc(c1)OCCCCC[C@@H](C(=O)C(N)=O)NC2=O [Compound 142, (S)-2-(1′-methyl-11-oxo-1^1H-3-oxa-10-aza-1(3,4)-pyrazola-2(1,3)-benzenacycloundecaphane-9-yl)-2-oxoacetamide]
IC50 [2]: > 10000 nM
IC50 [3]: < 3000 nM
IC50 [4]: > 10000 nM

C/C1=C\C[C@@H](C=O)NC(=O)c2cc(C)nn2-c2cccc(c2)OCC1 [Compound 144, (S,E)-1^3,6-dimethyl-11-oxo-1^1H-3-oxa-10-aza-1(1,5)-pyrazola-2(1,3)-benzenacycloundecaphan-6-ene-9-carbaldehyde]
IC50 [2]: < 3000 nM
IC50 [3]: < 3000 nM
IC50 [4]: < 3000 nM

C/C1=C\C[C@@H](C(=O)C(N)=O)NC(=O)c2cc(C)nn2-c2cccc(c2)OCC1 [Compound 145, (S,E)-2-(1^3,6-dimethyl-11-oxo-1H-3-oxa-10-aza-1(1,5)-pyrazola-2(1,3)-benzenacycloundecaphan-6-en-9-yl)-2-oxoacetamide]
IC50 [2]: < 3000 nM
IC50 [3]: < 3000 nM
IC50 [4]: < 3000 nM

O=C[C@@H]1CCCCCOc2ccc(F)c(c2)-c2ccccc2C(=O)N1 [Compound 146, (S)-2^6-fluoro-11-oxo-3-oxa-10-aza-1(1,2),2(1,3)-dibenzenacycloundecaphane-9-carbaldehyde]
IC50 [2]: < 3000 nM
IC50 [3]: < 3000 nM
IC50 [4]: < 3000 nM

NC(=O)C(O)[C@@H]1CCCCCOc2ccnc(n2)-c2ccccc2C(=O)N1 (stereo partly shown) [Compound 147]
IC50 [2]: > 10000 nM
IC50 [3]: > 10000 nM
IC50 [4]: > 10000 nM

NC(=O)C(=O)[C@@H]1CCCCCOc2ccc(F)c(c2)-c2ccccc2C(=O)N1 [Compound 148, (S)-2-(2^6-fluoro-11-oxo-3-oxa-10-aza-1(1,2),2(1,3)-dibenzena-cycloundecaphane-9-yl)-2-oxoacetamide]
IC50 [2]: < 3000 nM
IC50 [3]: < 3000 nM
IC50 [4]: < 3000 nM

O=C[C@@H]1CCCCCOc2ccnc(c2)-c2ccccc2C(=O)N1 [Compound 149, (S)-3-oxo-11-oxa-4-aza-1(2,4)-pyridina-2(1,2)-benzenacycloundecaphane-5-carbaldehyde]
IC50 [2]: < 3000 nM
IC50 [3]: < 3000 nM
IC50 [4]: < 3000 nM

(S)-2-(1^3-methyl-11-oxo-1^1H-3-oxa-10-aza-1(1,5)-pyrazola-2(1,3)-benzenacycloundecaphane-9-yl)-2-oxoacetamide [Compound 143]
IC50 [2]: < 3000 nM
IC50 [3]: < 3000 nM
IC50 [4]: < 3000 nM
